Columns and labels:
[1] = test system: Superior potatoes; experiment: Potato field trial 2011: emergence, flowering, vigor, biomass; format: in vivo; conditions: for Crop Vigor (1-5 Scale): 3=same as untreated check, 5=visually superior; for Plant Biomass: 117 DAP, above ground
Method: Seed treatments included an Untreated Control, NPG applied as a seed treatment, and NPG applied as a seed treatment followed by two foliar applications. Aqueous solutions of NPG were applied at a 10^−7 M concentration to seed pieces using a spray nozzle and left to soak on a plastic sheet for 20 min.
Foliar NPG applications were performed 36 and 45 days after planting. Plants were sprayed using a four-nozzle hollow-cone boom containing ceramic disks and CO2 propellant at a speed of 4.5 km/h and 40 psi. The 36 day application utilized a 2.0 L mix size and spray rate of 200 L/ha water volume. The 45 day application utilized a 3.0 L mix size and spray rate of 300 L/ha water volume. Seeds pieces designated for use as the Untreated Control also received the fungicide maintenance treatment.
The seed pieces were beginning to sprout when planted on June 8th in a loam composed of 34% sand, 48% silt and 18% clay and 2.9% organic matter.
Potatoes were planted at a rate of 25,000 seed pieces/ha to a depth of 20 cm and hilled using a tractor mounted potato hiller. Weeds were controlled using 3 L/ha of 40.6 wt % linuron. Insects were controlled using 250 ml/ha 18.4 wt % chlorantraniliprole and 80 g/ha 70 wt % acetamiprid insecticides. Disease was controlled using a tank mix of 1.6 kg/ha 75 wt % mancozeb M and 225 g/ha 60 wt % cymoxanil fungicides. Before harvest, plants were sprayed twice (seven days apart) with 39.5 wt % diquat dibromide herbicide at a rate of 2 L/ha. All of the products are industry standards and representative of what is used in commercial production.
The trial was conducted using a randomized complete block design with a plot size of 2 m by 8 m with a 100 cm row spacing, 30 cm plant spacing and four replications. Due to wet weather, the soil was damp and cloddy during the planting and hilling process.
Treatments were compared on a “Vigor Scale” of 1 to 5 as follows:
Potato Plant Biomass was determined at 117 DAP by harvesting five plants above ground level from each plot (Table 7).

[2] = test system: soybean seeds; experiment: Petri dish seed germination assay, soybean; format: in vivo
Method: A series of Petri dish seed assays was conducted to evaluate the effects NPG on the seed germination rates of corn, soybean, and canola seeds subjected to cold stress, salt stress and non-stressed conditions (salt stress only for canola). Assays were performed with ten replications of ten seeds/plate (100 total seeds). NPG was applied to seeds at the specified concentrations prior to being placed in Petri plates. Seeds designated for Salt Stress Experiments 1 & 2 were placed in Petri dishes containing a 100 mM NaCl solution and incubated at 21° C.-22° C. in the dark. Cold stress Petri dishes were incubated at 15° C. in the dark. Untreated Controls were incubated at 21° C.-22° C. in the dark as were seeds utilized in the separately conducted non-stressed germination assays. Data was recorded as percent germination at designated times after plating. Statistical analyses were performed using one-way Anova and Kruskal-Wallis one-way analysis of variance on rank combined with Dunn's all pairwise multiple comparison procedure (α=0.05).

[3] = 10^−7M seed treatment + Foliar, 20 DAP
[4] = 10^−7M seed treatment + Foliar, 28 DAP
[5] = 10^−7M seed treatment + Foliar, 40 DAP

## CCCCCCC=CCCCCCCCC(=O)NC1C(OC)OC(CO)C(O)C1O [NPG, Methyl 2-deoxy-2-N-(hexadece-9,10-cis-eneoyl)-β-D-glucopyranoside]
[1]; [3]
  Potato Emergence: 36a %
  Crop Vigor (1-5 Scale): 4.6b
[1]; [4]
  Potato Emergence: 38a %
  Crop Vigor (1-5 Scale): 3.9a
[1]; [5]
  Potato Flowering: 22b %
  Crop Vigor (1-5 Scale): 3.6a
[1]; 10^−7M seed treatment + Foliar, 49 DAP
  Crop Vigor (1-5 Scale): 4.1c
[1]; 10^−7M seed treatment + Foliar
  Plant Biomass: 2.56a kg/5 Plants
[1]; 10^−7M seed treatment, 20 DAP
  Potato Emergence: 30a %
  Crop Vigor (1-5 Scale): 2.9a
[1]; 10^−7M seed treatment, 28 DAP
  Potato Emergence: 39a %
  Crop Vigor (1-5 Scale): 2.9a
[1]; 10^−7M seed treatment, 40 DAP
  Potato Flowering: 0.0a %
  Crop Vigor (1-5 Scale): 3.1a
[1]; 10^−7M seed treatment, 49 DAP
  Crop Vigor (1-5 Scale): 3.5b
[1]; 10^−7M seed treatment
  Plant Biomass: 2.35a kg/5 Plants
[2]; Cold Stress (15° C.), 10^−6M × 4 Times, 30 HAP
  Soybean Seed Germination: 29a %
[2]; Cold Stress (15° C.), 10^−6M × 4 Times, 36 HAP
  Soybean Seed Germination: 58a %
[2]; Cold Stress (15° C.), 10^−6M × 4 Times, 44 HAP
  Soybean Seed Germination: 81a %
[2]; Cold Stress (15° C.), 10^−6M × 4 Times, 50 HAP
  Soybean Seed Germination: 90a %
[2]; Cold Stress (15° C.), 10^−6M × 4 Times, 60 HAP
  Soybean Seed Germination: 97a %
[2]; Cold Stress (15° C.), 10^−6M, 30 HAP
  Soybean Seed Germination: 26a %
[2]; Cold Stress (15° C.), 10^−6M, 36 HAP
  Soybean Seed Germination: 58a %
[2]; Cold Stress (15° C.), 10^−6M, 44 HAP
  Soybean Seed Germination: 80a %
[2]; Cold Stress (15° C.), 10^−6M, 50 HAP
  Soybean Seed Germination: 90a %
[2]; Cold Stress (15° C.), 10^−6M, 60 HAP
  Soybean Seed Germination: 96a %
[2]; Cold Stress (15° C.), 10^−7M, 30 HAP
  Soybean Seed Germination: 23a %
[2]; Cold Stress (15° C.), 10^−7M, 36 HAP
  Soybean Seed Germination: 51a %
[2]; Cold Stress (15° C.), 10^−7M, 44 HAP
  Soybean Seed Germination: 84a %
[2]; Cold Stress (15° C.), 10^−7M, 50 HAP
  Soybean Seed Germination: 91a %
[2]; Cold Stress (15° C.), 10^−7M, 60 HAP
  Soybean Seed Germination: 95a %
[2]; Non-Stressed, 10^−6M × 4 Times, 27 HAP
  Soybean Seed Germination: 72a %
[2]; Non-Stressed, 10^−6M × 4 Times, 34 HAP
  Soybean Seed Germination: 88a %
[2]; Non-Stressed, 10^−6M × 4 Times, 45 HAP
  Soybean Seed Germination: 94a %
[2]; Non-Stressed, 10^−6M, 27 HAP
  Soybean Seed Germination: 70a %
[2]; Non-Stressed, 10^−6M, 34 HAP
  Soybean Seed Germination: 93a %
[2]; Non-Stressed, 10^−6M, 45 HAP
  Soybean Seed Germination: 97a %
[2]; Salt Stress (100 mM NaCl), 10^−6M × 4 Times, 27 HAP
  Soybean Seed Germination: 17a %
[2]; Salt Stress (100 mM NaCl), 10^−6M × 4 Times, 34 HAP
  Soybean Seed Germination: 76ab %
[2]; Salt Stress (100 mM NaCl), 10^−6M × 4 Times, 45 HAP
  Soybean Seed Germination: 89ab %
[2]; Salt Stress (100 mM NaCl), 10^−6M × 4 Times, 55 HAP
  Soybean Seed Germination: 96a %
[2]; Salt Stress (100 mM NaCl), 10^−6M × 4 Times, 65 HAP
  Soybean Seed Germination: 99a %
[2]; Salt Stress (100 mM NaCl), 10^−6M, 27 HAP
  Soybean Seed Germination: 22a %
[2]; Salt Stress (100 mM NaCl), 10^−6M, 34 HAP
  Soybean Seed Germination: 73ab %
[2]; Salt Stress (100 mM NaCl), 10^−6M, 45 HAP
  Soybean Seed Germination: 83ab %
[2]; Salt Stress (100 mM NaCl), 10^−6M, 55 HAP
  Soybean Seed Germination: 95a %
[2]; Salt Stress (100 mM NaCl), 10^−6M, 65 HAP
  Soybean Seed Germination: 99a %
